Legend:
[1] = UPLC-MS/MS quantification of berberine and metabolites in ileal and caecal content; type: in vivo, Ross 308 broiler chickens; settings: 21 days
Description: (§1) The study was undertaken following the guidelines of the ethics committee of the Faculty of Veterinary Medicine and Bioscience Engineering, Ghent University, in accordance with the EU Directive 2010/63/EU. One-day-old Ross 308 male broilers were obtained from a local hatchery and housed in pens on wood shavings. They were allotted into 4 groups, with three replicate pens per group each housing 8 chickens. The animals were not vaccinated. Water and commercial starter feed (day 1–12, FARM 1 Mash, Country’s Best, Versele Laga, Deinze, Belgium) or grower (day 13–21, FARM 2 mash, Country’s Best, Versele Laga, Deinze, Belgium) were provided ad libitum. The control group received the standard non-supplemented diets, whereas the chickens in other groups were fed the same feed supplemented with 0.1, 0.5 or 1 g berberine/kg feed throughout the whole trial period. At day 21, 4 birds per pen were weighted then euthanized by sodium pentobarbital injection for sampling. Individual jejunal, ileal, caecal and colonic contents were stored at −20°C for microbiota composition analysis (16S rRNA gene sequencing). Additionally, ileal and caecal content samples were collected and stored at −20°C for berberine and berberine-derived metabolite quantification. Duodenal tissue samples were collected and fixed in 4% phosphate buffered formaldehyde for histological analysis. Blood samples were collected in heparin tubes and centrifuged at 524 g for 10 min to recover the plasma fraction, which was further mixed with 17 mg/mL L-ascorbic acid for dihydroberberine stabilization, and stored at −20°C for berberine and berberine-derived metabolite quantification.
(§2) The column temperature was maintained at 25°C. The autosampler temperature was set at 10°C.
250 mg of ileal or caecal content was weighed in a 15 mL polypropylene centrifuge tube and 250 µL of ascorbic acid 170 mg/mL solution was added for stabilization of dihydroberberine, followed by brief vortexing. Subsequently, 25 µL of an internal standard solution containing 250 μg/mL of berberine-d6 and 2.5 μg/mL tetrahydropalmatine were added, followed by brief vortexing. A 2.5 mL volume of extraction solvent was then added, consisting of a 1% (v/v) formic acid solution in methanol. The sample was put on a rotary shaker set at 80 rpm for 20 min, followed by centrifugation (3,720 g, 10 min, 4°C). The supernatant was then diluted, by a factor 5 for measurement of low abundance components, and by a factor 2,000 for measurement of high abundance components. The 1/5 diluted sample extract was prepared directly in an autosampler vial as follows: 200 µL sample extract were mixed with 100 µL ascorbic acid 170 mg/mL solution and 700 µL Milli-Q water. For the 1/2,000 diluted sample extract, an intermediate 1/100 sample dilution was prepared by combining 500 µL sample extract and 49.5 mL of Milli-Q water. 50 μL was then transferred in an autosampler vial followed by the addition of 950 µL of Milli-Q water. For both dilutions, a 5 µL sample aliquot was injected onto the UPLC-MS/MS apparatus. Quantification was based on the ratio of the analyte peak area compared to the peak area of the internal standard tetrahydropalmatine for 1/5 diluted sample extracts, and on the ratio of the analyte peak area compared to the peak area of the internal standard berberine-d6 for 1/2,000 diluted sample extracts.
Calibration standards and quality control samples were prepared as follows: 250 mg of blank ileal or caecal content were supplemented with 250 µL of ascorbic acid 170 mg/mL solution, 25 µL mixed solution of berberine and metabolites (with the exception of dihydroberberine) at different levels, 25 µL of dihydroberberine solution, stabilized with 17 mg/mL ascorbic acid, at different levels and 25 µL of an internal standard solution containing 0.625 μg/mL of berberine-d6 and 2.5 μg/mL tetrahydropalmatine. The calibration curve was in the 62.5–5,000 ng/g range, and included 62.5, 125, 250, 500, 1,000, 2,500, and 5,000 ng/g levels. […]

Caco-2 cells = assay: Berberine metabolism in intestinal cell cultures, Caco-2; type: in vitro ADME, human
Experimental: (§3) Caco-2 and T84 cells were seeded at 2 × 10^5 cells/well in 96-well plates and cultivated for 24 h in their respective medium, as described before. Cells were treated with 200 µL of 0.1 μg/mL berberine in antibiotic-free medium and incubated for 48 h. Berberine medium only was incubated in the same conditions as the cells and used as control for metabolite baseline levels. 100 μL of cell cultures or control medium were collected and centrifuged at 13,000 g for 10 min 80 μL of the supernatant was mixed with 20 µL 170 mg/mL L-ascorbic acid solution in water for dihydroberberine stabilization and stored at −20°C until metabolite analysis. All experiments were performed in triplicate at 37°C, 5% CO2. Metabolite production was expressed as a log2 fold change, calculated as the log2 of the ratio of the metabolite response at t = 48 h in the cell cultures over the metabolite response at t = 48 h in the control medium.
as §2

[2] = UPLC-MS/MS quantification of berberine and metabolites in plasma; type: in vivo, Ross 308 broiler chickens; settings: chickens fed 0.1, 0.5 or 1 g berberine/kg feed for 21 days; LOQ 0.1 ng/mL
Description: as §1, §2
A 137.5 µL plasma sample containing 17 mg/mL L-ascorbic acid was used for sample extraction. The ascorbic acid solution was added to prevent oxidation of dihydroberberine to berberine during sample storage ([Feng et al., 2015]). The plasma sample was transferred to an OstroTM 96 well-plate (25 mg) (Waters). Subsequently, 50 µL Milli-Q water and 25 µL of an internal standard solution containing 100 ng/mL of both berberine-d6 and tetrahydropalmatine were added. A 640 µL volume of 1% (v/v) formic acid solution in acetonitrile (1/3 ratio) was added, followed by gentle mixing. Vacuum was applied on the Ostro™ plate for 5 min and the eluate was collected in a 2 mL square 96-well collector plate. The sample was transferred in a glass tube and evaporated at 40°C under a gentle stream of nitrogen in a Pierce (Rockford, United States) Reacti-Therm III™ Heating Module and Reacti-Vap™ III Module. The dried sample extract was reconstituted in 500 µL Milli-Q water, followed by injection of a 5 µL sample aliquot onto the UPLC-MS/MS apparatus. Quantification was based on the ratio of the analyte peak area compared to the peak area of the internal standard berberine-d6.
Calibration standards and quality control samples were prepared as follows: 137.5 µL of blank plasma stabilized with 17 mg/mL L-ascorbic acid were supplemented with 25 µL mixed working solutions of berberine and metabolites (except dihydroberberine) at different levels, 25 µL of dihydroberberine working solution, stabilized with 17 mg/mL L-ascorbic acid, at different levels and 25 µL of an internal standard solution containing 100 ng/mL of both berberine-d6 and tetrahydropalmatine. The calibration curve was in the 0.1–100 ng/mL range, including 0.1, 0.5, 1, 2.5, 5, 10, 25, […], 50 and 100 ng/mL levels.
The UPLC-MS/MS analysis method for the quantification of berberine and berberine-derived metabolites both in plasma and ileal/caecal intestinal content was validated to the guidelines of the European Medicines Agency, i.e., of the Committee for Veterinary Medicinal Products (EMEA/CVMP/VICH/463202/2009) and of the Committee for Medicinal Products for Human Use (EMEA/CHMP/EWP/192217/20), and in accordance with the EU Directive 2002/657/EC. […]

T84 cells = assay: Berberine metabolism in intestinal cell cultures, T84; type: in vitro ADME, human
Experimental: as §3, §2

[3] = Dihydroberberine stability in solution over 24 hours; type: physicochemical; settings: within 24 h; 10 ng/mL in Milli-Q water, 10°C, without vitamin C
Experimental: A working solution of dihydroberberine at 10 ng/mL was prepared in Milli-Q water and supplemented or not with 17 mg/mL L-ascorbic acid (vitamin C) solution and injected during 24 hours of storage time in the autosampler at 10°C.

Ratio caecum / ileum (concentration) ([1]; 0.1 g berberine/kg feed) | Ratio caecum / ileum (concentration) ([1]; 0.5 g berberine/kg feed) | Ratio caecum / ileum (concentration) ([1]; 1 g berberine/kg feed) | Detection in cell culture (Caco-2 cells; Caco-2, 0.1 μg/mL berberine, 48 h) | Detection in plasma [2] | Detection in cell culture (T84 cells; T84, 0.1 μg/mL berberine, 48 h) | Oxidation of dihydroberberine back to berberine [3] | Log2(fold change) of metabolite response, cell culture over berberine control medium at 48 h (Caco-2 cells; human, Caco-2, 48 h, 0.1 µg/mL) | Log2(fold change) of metabolite response, cell culture over berberine control medium at 48 h (T84 cells; human, 0.1 µg/mL) | Compound
1.94 | 1.48 | 0.95 | not detected | not detected | not detected |  |  |  | COc1ccc2cc3n(c(=O)c2c1OC)CCc1cc2c(cc1-3)OCO2 [Oxyberberine, oxyberberine]
0.75 | 0.27 | 0.44 |  | effectively detected |  | up to 66% |  |  | COc1ccc2c(c1OC)CN1CCc3cc4c(cc3C1=C2)OCO4 [Dihydroberberine, dihydroberberine]
 |  |  |  |  |  |  | -0.18 | -0.72 | COc1cc2c(cc1OC)-c1cc3ccc(OC)c(OC)c3c[n+]1CC2 [Palmatine, palmatine chloride]

— article PMC10733463, “Berberine-microbiota interplay: orchestrating gut health through modulation of the gut microbiota and metabolic transformation into bioactive metabolites” (Frontiers in Pharmacology, 2023)
